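How tested: cells in 96-well plates exposed to compound for 48 hours at five concentrations. TGI denotes the concentration required for complete inhibition of growth.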
Key:
Assay in all cases: NCI anticancer screen, dose series, 48 h
[1] = system: PC-3 prostate
[2] = system: CAKI-1 renal
[3] = system: SNB-19 CNS
[4] = system: UACC-257 melanoma
[5] = system: K-562 leukemia
[6] = system: TK-10 renal
[7] = system: MOLT-4 leukemia
[8] = system: HT29 colon
[9] = system: EKVX NSCLC
[10] = system: OVCAR-5 ovarian
[11] = system: DU-145 prostate
[12] = system: SNB-75 CNS
[13] = system: CCRF-CEM leukemia
[14] = system: NCI-H522 lung
[15] = system: HCC-2998 colon
[16] = system: LOX IMVI melanoma
[17] = system: SK-MEL-2 melanoma
[18] = system: SF-268 CNS
[19] = system: COLO 205 colon
[20] = system: MDA-N
[21] = system: SN12C renal
[22] = system: HCT-116 colon
[23] = system: HOP-92 NSCLC
[24] = system: RPMI-8226 leukemia
[25] = system: MALME-3M melanoma
[26] = system: NCI-H226 lung
[27] = system: SF-539 CNS
[28] = system: HL-60(TB) leukemia
[29] = system: SF-295 CNS
[30] = system: HS 578T breast
[31] = system: OVCAR-4 ovarian
[32] = system: SW-620 colon
[33] = system: T-47D breast
[34] = system: A498 renal
[35] = system: KM12 colon
[36] = system: UACC-62 melanoma
[37] = system: HOP-62 NSCLC
[38] = system: SK-MEL-28 melanoma
[39] = system: SK-MEL-5 melanoma
[40] = system: OVCAR-8 ovarian
[41] = system: M14 melanoma
[42] = system: OVCAR-3 ovarian
[43] = system: ACHN renal
[44] = system: MCF7 breast
[45] = system: MDA-MB-231 breast
[46] = system: IGROV1 ovarian
[47] = system: 786-0 renal
[48] = system: MDA-MB-435
[49] = system: RXF 393 renal
[50] = system: NCI/ADR-RES ovarian
[51] = system: HCT-15 colon
[52] = system: BT-549 breast
[53] = system: A549 NSCLC
[54] = system: NCI-H23 lung
[55] = system: SR leukemia
[56] = system: UO-31 renal
[57] = system: NCI-H460 lung
[58] = system: SK-OV-3 ovarian
[59] = system: U251 CNS

C=C1C[C@@H](O)[C@@H](Br)C(C)(C)[C@@]12C=CC(=O)CC2
TGI [1]: 7.97 µM
TGI [2]: > 100 µM
TGI [3]: > 100 µM
TGI [4]: > 100 µM
TGI [5]: > 100 µM
TGI [6]: > 100 µM
TGI [7]: > 100 µM
TGI [8]: > 100 µM
TGI [9]: > 51.8 µM
TGI [10]: 13.7 µM
TGI [11]: > 100 µM
TGI [12]: > 100 µM
TGI [13]: > 100 µM
TGI [14]: > 100 µM
TGI [15]: > 100 µM
TGI [16]: > 100 µM
TGI [17]: > 100 µM
TGI [18]: > 100 µM
TGI [19]: 4.34 µM
TGI [20]: > 100 µM
TGI [21]: > 100 µM
TGI [22]: > 100 µM
TGI [23]: > 100 µM
TGI [24]: > 100 µM
TGI [25]: > 100 µM
TGI [26]: > 26.3 µM
TGI [27]: > 100 µM
TGI [28]: > 100 µM
TGI [29]: > 100 µM
TGI [30]: > 100 µM
TGI [31]: > 100 µM
TGI [32]: > 100 µM
TGI [33]: > 100 µM
TGI [34]: > 100 µM
TGI [35]: 5.31 µM
TGI [36]: > 100 µM
TGI [37]: > 100 µM
TGI [38]: > 100 µM
TGI [39]: > 100 µM
TGI [40]: > 100 µM
TGI [41]: > 100 µM
TGI [42]: > 100 µM
TGI [43]: > 100 µM
TGI [44]: > 100 µM
TGI [45]: > 100 µM
TGI [46]: > 48.3 µM
TGI [47]: > 100 µM
TGI [48]: > 100 µM
TGI [49]: > 100 µM
TGI [50]: > 100 µM
TGI [51]: > 100 µM
TGI [52]: > 100 µM
TGI [53]: > 100 µM
TGI [54]: > 100 µM
TGI [55]: > 100 µM
TGI [56]: > 100 µM
TGI [57]: > 100 µM
TGI [58]: > 100 µM
TGI [59]: > 100 µM

CC(=O)O[C@H]1CC[C@@]2(C)C(=CC[C@@H]3[C@@H]2CC[C@]2(C)c4c(n[nH]c4C)C[C@@H]32)C1
TGI [1]: 58.2 µM
TGI [2]: 32.5 µM
TGI [3]: 42.3 µM
TGI [4]: 33.2 µM
TGI [5]: > 100 µM
TGI [6]: 34.2 µM
TGI [7]: 53.4 µM
TGI [8]: 23.5 µM
TGI [9]: 34.7 µM
TGI [10]: 31.1 µM
TGI [11]: 27.2 µM
TGI [12]: 25.3 µM
TGI [13]: 25.1 µM
TGI [14]: 23 µM
TGI [15]: 34.1 µM
TGI [16]: > 100 µM
TGI [18]: 48.7 µM
TGI [19]: 35.4 µM
TGI [20]: 46.6 µM
TGI [21]: 45.5 µM
TGI [22]: 44.5 µM
TGI [23]: 39.8 µM
TGI [25]: 12.7 µM
TGI [26]: 35.2 µM
TGI [28]: 28.4 µM
TGI [29]: 37.2 µM
TGI [30]: 48 µM
TGI [31]: 33.3 µM
TGI [32]: > 100 µM
TGI [33]: 25 µM
TGI [34]: 41 µM
TGI [35]: 37.4 µM
TGI [36]: 25 µM
TGI [37]: 37.8 µM
TGI [38]: 45.2 µM
TGI [39]: 29.5 µM
TGI [40]: 92.9 µM
TGI [41]: 37.3 µM
TGI [42]: 26.2 µM
TGI [43]: 43.5 µM
TGI [44]: 24.2 µM
TGI [45]: 38.4 µM
TGI [46]: 38.8 µM
TGI [47]: 35.1 µM
TGI [48]: 33.9 µM
TGI [49]: 23.9 µM
TGI [50]: 85.1 µM
TGI [51]: 34.2 µM
TGI [52]: 32.1 µM
TGI [53]: 33.9 µM
TGI [54]: 34.5 µM
TGI [55]: 58.7 µM
TGI [56]: 33.8 µM
TGI [57]: 32.4 µM
TGI [58]: 46.1 µM
TGI [59]: 31.3 µM

N#CC1=C(N)N(/N=C/c2ccccc2)C(c2ccccc2)C1(C#N)C#N (stereo unspecified)
TGI [1]: 34.5 µM
TGI [2]: 13 µM
TGI [3]: > 54.6 µM
TGI [4]: 23.4 µM
TGI [5]: > 26 µM
TGI [6]: 16.7 µM
TGI [7]: 5.5 µM
TGI [8]: 15.7 µM
TGI [9]: 38.3 µM
TGI [10]: 39.4 µM
TGI [11]: 30.6 µM
TGI [12]: 31.6 µM
TGI [13]: 6.12 µM
TGI [14]: 16.6 µM
TGI [15]: 34.9 µM
TGI [16]: 14.6 µM
TGI [17]: 34.9 µM
TGI [18]: 46 µM
TGI [19]: 4.82 µM
TGI [20]: 30.5 µM
TGI [21]: 31 µM
TGI [22]: 8.13 µM
TGI [23]: 6.54 µM
TGI [24]: 18.5 µM
TGI [25]: 4.39 µM
TGI [26]: 37.2 µM
TGI [27]: 33.9 µM
TGI [28]: 5.47 µM
TGI [29]: 39.5 µM
TGI [30]: 66.7 µM
TGI [31]: 28.5 µM
TGI [32]: 14.5 µM
TGI [33]: 24.4 µM
TGI [34]: 29.3 µM
TGI [35]: > 58.2 µM
TGI [36]: 29.5 µM
TGI [37]: 33.1 µM
TGI [38]: 9.91 µM
TGI [39]: 30.9 µM
TGI [40]: 38 µM
TGI [41]: 42.8 µM
TGI [42]: 17.4 µM
TGI [43]: 14.9 µM
TGI [44]: 58.6 µM
TGI [45]: 31.4 µM
TGI [46]: 29.1 µM
TGI [47]: 16.1 µM
TGI [48]: 33.7 µM
TGI [49]: 9.83 µM
TGI [50]: 54.2 µM
TGI [51]: 18.7 µM
TGI [52]: 29.4 µM
TGI [53]: 43.1 µM
TGI [54]: 33.5 µM
TGI [55]: 8.5 µM
TGI [56]: 29.7 µM
TGI [58]: 26.3 µM
TGI [59]: 32.6 µM

CCCCCCCCC/C=C1/CC(CO)(COC(=O)CC(C(C)C)C(C)C)OC1=O (stereo unspecified)
TGI [1]: 21.3 µM
TGI [2]: 17.4 µM
TGI [3]: 23.9 µM
TGI [4]: 26 µM
TGI [5]: 28.6 µM
TGI [6]: 15.1 µM
TGI [7]: 35.4 µM
TGI [8]: 29.9 µM
TGI [9]: 20.1 µM
TGI [10]: 24.6 µM
TGI [11]: 25.3 µM
TGI [12]: 18.9 µM
TGI [13]: 25 µM
TGI [14]: 23.6 µM
TGI [15]: 9.86 µM
TGI [16]: 24.7 µM
TGI [17]: 29.7 µM
TGI [18]: 25 µM
TGI [19]: 4.64 µM
TGI [20]: 18.3 µM
TGI [21]: 18 µM
TGI [22]: 26.6 µM
TGI [23]: 15.8 µM
TGI [25]: 14.3 µM
TGI [26]: 21.5 µM
TGI [27]: 24.2 µM
TGI [28]: 15.4 µM
TGI [29]: 16.2 µM
TGI [30]: 3.91 µM
TGI [31]: 28.4 µM
TGI [32]: 19 µM
TGI [33]: 19 µM
TGI [34]: 12.6 µM
TGI [35]: 23.1 µM
TGI [36]: 25.6 µM
TGI [37]: 17.4 µM
TGI [38]: 31.8 µM
TGI [39]: 21.9 µM
TGI [40]: 29.8 µM
TGI [41]: 20.4 µM
TGI [42]: 27.6 µM
TGI [43]: 18.6 µM
TGI [44]: 24.4 µM
TGI [45]: 15.6 µM
TGI [46]: 29.1 µM
TGI [47]: 16.1 µM
TGI [48]: 19.6 µM
TGI [49]: 27.8 µM
TGI [50]: 28.1 µM
TGI [51]: 29 µM
TGI [52]: 27.7 µM
TGI [53]: 13.9 µM
TGI [54]: 26.9 µM
TGI [55]: > 54.2 µM
TGI [56]: 18.1 µM
TGI [57]: 18.2 µM
TGI [58]: 31.5 µM
TGI [59]: 25.6 µM

Reference: PubChem BioAssay (NCI)
